Earlier results in patent EP2382994A1, “Ligand targeted nanocapsules for the delivery of RNAi and other agents” (Cattaneo, Maurizio Victor, priority 2010, dated 2011).

Columns and labels:
[1] = systemic delivery of 20 mg DOX; Tang et al. 2007
[2] = test system: advanced stage melanoma

In the case of COc1cccc2c1C(=O)c1c(O)c3c(c(O)c1C2=O)C[C@@](O)(C(=O)CO)C[C@@H]3O[C@H]1C[C@H](N)[C@H](O)[C@H](C)O1 [DOX, Doxorubicin], the “lethal toxicity, time of treatment” value [1] is listed as ≤ 8 days and the “clinical efficacy in melanoma” value [2] is listed as “essentially ineffective”.
